Assay results: ChEMBL document CHEMBL1127360, “Antipodal alpha-N-(methyl through decyl)-N-normetazocines (5,9 alpha-dimethyl-2'-hydroxy-6,7-benzomorphans): in vitro and in vivo properties” (J Med Chem, 1994)
Calls of active or inactive are those of the source. No cut-off for these calls is given here.

Assays:
Mus musculus [1] = assay: In vivo antinociceptive activity was tested through tail flick (TF) with this compound in mouse at 30 mg/kg concentration; format: functional
Mus musculus [2] = assay: In vivo antinociceptive activity at 10 mg/kg was tested through injecting 2 mg/kg ip phenylquinone, activity calculated by total number of abdominal-stretches per group counted over a 1 min period; format: functional
Glutamate NMDA receptor = assay: Inhibition using [3H]TCP in homogenate of rat brain; format: tissue-based
Mus musculus [3] = assay: In vivo antinociceptive activity at 10 mg/kg was tested through hot plate (HP) by placing mouse on hot plate, and calculating number of times it jumps or licks its paw in 5 seconds; format: functional
Mu-type opioid receptor = Mu-type opioid receptor (Rattus norvegicus, UniProt P33535); assay: Inhibition against mu receptor using [3H]DAMGO in homogenate of rat brain cerebellum; format: tissue-based
Mus musculus [4] = assay: In vivo for its narcotic antagonistic activity of the antinociceptive effect in mouse; format: functional, organism-based

Sequence of Mu-type opioid receptor (P33535 whole entry): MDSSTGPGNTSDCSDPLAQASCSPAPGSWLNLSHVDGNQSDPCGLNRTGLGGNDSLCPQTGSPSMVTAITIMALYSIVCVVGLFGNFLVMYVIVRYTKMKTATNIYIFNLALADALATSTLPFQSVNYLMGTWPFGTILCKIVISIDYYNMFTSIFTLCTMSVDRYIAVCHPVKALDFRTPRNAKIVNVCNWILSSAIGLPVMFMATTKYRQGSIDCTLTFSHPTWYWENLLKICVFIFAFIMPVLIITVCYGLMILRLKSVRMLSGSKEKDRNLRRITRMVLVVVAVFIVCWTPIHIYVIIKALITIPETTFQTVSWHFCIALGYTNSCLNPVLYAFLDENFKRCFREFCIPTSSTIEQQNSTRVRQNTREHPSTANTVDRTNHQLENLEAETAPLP

C[C@@H]1C2Cc3ccc(O)cc3[C@]1(C)CCN2
inhibition in vivo at 30 mg/kg (Mus musculus [1]): 27%
Inhibition (Mus musculus [2]): 23%
Ki (Glutamate NMDA receptor): 30 nM
inhibition in vivo at 10 mg/kg (Mus musculus [3]): 13%
Ki (Mu-type opioid receptor): 470 nM
Activity (Mus musculus [4]): inactive
